According to patent publication US10239832B2, “N-(1-hydroxy-3-(pyrrolidinyl)propan-2-yl)pyrrolidine-3-carboxamide derivatives as glucosylceramide synthase inhibitors” (BIOMARIN PHARMACEUTICAL INC., priority 2013, dated 2019):
pIC50: −log10 of the molar value.

Each molecule was assayed against T1, GCS (Canis lupus familiaris, UniProt A0A8I3MXG6) (assay: GCS enzymatic assay (MDCK cell lysate, NBD-ceramide to glucosylceramide, LC/MS)). Conditions: Table 2; class symbols A, B, C; the table does not say which of the assays; read-out: Data Range (IC50 values).
T1 construct: endogenous in cells; host or cells: MDCK (Madin-Darby canine kidney) cells, whole-cell lysate
T1 sequence (A0A8I3MXG6 1-394): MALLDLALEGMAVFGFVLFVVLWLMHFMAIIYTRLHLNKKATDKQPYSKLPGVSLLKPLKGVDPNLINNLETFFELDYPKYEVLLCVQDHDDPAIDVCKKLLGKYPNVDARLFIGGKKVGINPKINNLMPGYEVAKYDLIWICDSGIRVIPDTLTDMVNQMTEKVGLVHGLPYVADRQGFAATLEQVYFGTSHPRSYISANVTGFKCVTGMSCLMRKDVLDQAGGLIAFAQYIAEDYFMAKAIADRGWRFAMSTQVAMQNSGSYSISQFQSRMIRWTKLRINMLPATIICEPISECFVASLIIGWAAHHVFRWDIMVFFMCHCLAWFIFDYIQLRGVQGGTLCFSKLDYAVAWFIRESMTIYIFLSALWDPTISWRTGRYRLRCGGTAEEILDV
Assay type: biochemical, canine
Outline: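 IC50 or percent inhibition came from LC/MS/MS (ESI+, MRM) of NBD-ceramide and glucosylceramide, with tolbutamide as internal standard. The reaction used MDCK (canine) cell lysate as the enzyme source and was ended with acetonitrile. Mock wells received 0.1% DMSO.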

pIC50	Compound
7.52 to 9.00	O=C(N[C@H](CN1CCCC1)[C@H](O)c1ccc(OC2CC2)cc1)[C@@H]1CCN(c2ccccc2)C1 [Compound 149, (R)-N-((1R,2R)-1-(4-cyclopropoxyphenyl)-1-hydroxy-3-(pyrrolidin-1-yl)propan-2-yl)-1-phenylpyrrolidine-3-carboxamide]
7.52 to 9.00	Cn1ncc2ccc(N3CC[C@@H](C(=O)N[C@H](CN4CCCC4)[C@H](O)c4ccc(OC5CC5)c(Cl)c4)C3)cc21 [Compound 133, (R)-N-((1R,2R)-1-(3-chloro-4-cyclopropoxyphenyl)-1-hydroxy-3-(pyrrolidin-1-yl)propan-2-yl)-1-(1-methyl-1H-indazol-6-yl)pyrrolidine-3-carboxamide]
7.52 to 9.00	O=C(N[C@H](CN1CCCC1)[C@H](O)c1ccc2c(c1)OCCO2)[C@@H]1CCN(c2cccc(Oc3ccc(F)cc3)n2)C1 [Compound 119, (R)-N-((1R,2R)-1-(2,3-dihydrobenzo[b][1,4]dioxin-6-yl)-1-hydroxy-3-(pyrrolidin-1-yl)propan-2-yl)-1-(6-(4-fluorophenoxy)pyridin-2-yl)pyrrolidine-3-carboxamide]
7.52 to 9.00	O=C(N[C@H](CN1CCCC1)[C@H](O)c1ccc2c(c1)OC=CO2)[C@@H]1CCN(c2ccc(Cl)cc2)C1 [Compound 143, (R)-N-((1R,2R)-1-(benzo[b][1,4]dioxin-6-yl)-1-hydroxy-3-(pyrrolidin-1-yl)propan-2-yl)-1-(4-chlorophenyl)pyrrolidine-3-carboxamide]
7.52 to 9.00	O=C(N[C@H](CN1CCCC1)[C@H](O)c1ccc2c(c1)OCCO2)C1CCN(c2ccc3cc(F)ccc3c2)C1 (stereo in doubt) [Compound 14, (S)-N-((1R,2R)-1-(2,3-dihydrobenzo[b][1,4]dioxin-6-yl)-1-hydroxy-3-(pyrrolidin-1-yl)propan-2-yl)-1-(6-fluoronaphthalen-2-yl)pyrrolidine-3-carboxamide]
7.52 to 9.00	O=C(N[C@H](CN1CCCC1)[C@H](O)c1ccc(OC2CC2)c(Cl)c1)[C@@H]1CCN(c2cccc(Oc3ccc(Cl)cc3)n2)C1 [Compound 112, (R)-N-((1R,2R)-1-(3-chloro-4-cyclopropoxyphenyl)-1-hydroxy-3-(pyrrolidin-1-yl)propan-2-yl)-1-(6-(4-chlorophenoxy)pyridin-2-yl)pyrrolidine-3-carboxamide]
7.52 to 9.00	O=C(N[C@H](CN1CCCC1)[C@H](O)c1ccc(OC2CC2)c(F)c1)[C@@H]1CCN(c2ccccc2)C1 [Compound 151, (R)-N-((1R,2R)-1-(4-cyclopropoxy-3-fluorophenyl)-1-hydroxy-3-(pyrrolidin-1-yl)propan-2-yl)-1-phenylpyrrolidine-3-carboxamide]
7.52 to 9.00	O=C(N[C@H](CN1CCCC1)[C@H](O)c1ccc2c(c1)OCCO2)C1CCN(c2ccc3cc(Cl)sc3c2)C1 (stereo partly drawn) [Compound 76D, 1-(2-chlorobenzo[b]thiopen-6-yl)-N-((1R,2R)-1-(2,3-dihydrobenzo[b][1,4]dioxin-6-yl)-1-hydroxy-3-(pyrrolidin-1-yl)propan-2-yl)pyrrolidine-3-carboxamide]
7.52 to 9.00	O=C(N[C@H](CN1CCCC1)[C@H](O)c1ccc(OC2CC2)c(Cl)c1)[C@@H]1CCN(c2ccc(Cl)c(Oc3ccccn3)c2)C1 [Compound 103, (R)-1-(4-chloro-3-(pyridin-2-yloxy)phenyl)-N-((1R,2R)-1-(3-chloro-4-cyclopropoxyphenyl)-1-hydroxy-3-(pyrrolidin-1-yl)propan-2-yl)pyrrolidine-3-carboxamide]

Same assay, conditions: Table 2; class symbols D, E, F, NA (not active); the table does not say which of the assays

Data Range (% inhibition)	Compound
E (50-74% (or less than 75%))	O=C(N[C@H](CN1CCCC1)[C@H](O)c1ccc2c(c1F)OCCO2)[C@@H]1CCN(c2ccc(Cl)cc2)C1 [Compound 130, (R)-1-(4-chlorophenyl)-N-((1R,2R)-1-(5-fluoro-2,3-dihydrobenzo[b][1,4]dioxin-6-yl)-1-hydroxy-3-(pyrrolidin-1-yl)propan-2-yl)pyrrolidine-3-carboxamide]
F (1-49% (or less than 50%))	O=C(N[C@H](CN1CCCC1)[C@H](O)c1ccc(OC2CC2)c(Cl)c1)[C@@H]1CCN(c2ccc(Cl)cn2)C1 [Compound 57, (R)-N-((1R,2R)-1-(3-chloro-4-cyclopropoxyphenyl)-1-hydroxy-3-(pyrrolidin-1-yl)propan-2-yl)-1-(5-chloropyridin-2-yl)pyrrolidine-3-carboxamide]

The remaining lines, values behind:

Compound	Data Range (% inhibition)
O=C(N[C@H](CN1CCCCC1)[C@H](O)c1ccc2c(c1)OCCO2)[C@@H]1CCN(c2ccc(F)cc2)C1 [Compound 46, (R)-N-((1R,2R)-1-(2,3-dihydrobenzo[b][1,4]dioxin-6-yl)-1-hydroxy-3-(piperidin-1-yl)propan-2-yl)-1-(4-fluorophenyl)pyrrolidine-3-carboxamide]	F (1-49% (or less than 50%))
O=C(N[C@H](CN1CCCC1)[C@H](O)c1ccc(OCC(F)(F)F)nc1)[C@@H]1CCN(c2ccc(F)cc2)C1 [Compound 34, (R)-1-(4-fluorophenyl)-N-((1R,2R)-1-hydroxy-3-(pyrrolidin-1-yl)-1-(6-(2,2,2-trifluoroethoxy)pyridin-3-yl)propan-2-yl)pyrrolidine-3-carboxamide]	E (50-74% (or less than 75%))
O=C(N[C@H](CN1CCCC1)[C@H](O)c1ccc2c(c1)OCCO2)[C@H]1CCN(c2nc3c(s2)CCCC3)C1 [Compound 36G, (S)-N-((1R,2R)-1-(2,3-dihydrobenzo[b][1,4]dioxin-6-yl)-1-hydroxy-3-(pyrrolidin-1-yl)propan-2-yl)-1-(4,5,6,7-tetrahydrobenzo[d]thiazol-2-yl)pyrrolidine-3-carboxamide]	NA (not active—a negative value was generated for % inhibition)
O=C(N[C@H](CN1CCCC1)[C@H](O)c1ccc2c(c1)OCCO2)C1CCN(c2nc3c(s2)CCCC3)C1 (stereo partly drawn) [Compound 36F, N-((1R,2R)-1-(2,3-dihydrobenzo[b][1,4]dioxin-6-yl)-1-3-hydroxy-(pyrrolidin-1-yl)propan-2-yl)-1-(4,5,6,7-tetrahydrobenzo[d]thiazol-2-yl)pyrrolidine-3-carboxamide]	F (1-49% (or less than 50%))
O=C(N[C@H](CN1CCCC1)[C@H](O)c1cc(F)c2c(c1)OCCO2)[C@H]1CCN(c2ccc3c(c2)CCCC3)C1 [Compound 93A, (S)-N-((1R,2R)-1-(8-fluoro-2,3-dihydrobenzo[b][1,4]dioxin-6-yl)-1-hydroxy-3-(pyrrolidin-1-yl)propan-2-yl)-1-(5,6,7,8-tetrahydronaphthalen-2-yl)pyrrolidine-3-carboxamide]	E (50-74% (or less than 75%))
O=C(N[C@H](CN1CCCC1)[C@H](O)c1ccc2c(c1)OCCO2)C1CCN(C2CCCCC2)C1 (stereo partly drawn) [Compound 26, 1-cyclohexyl-N-((1R,2R)-1-(2,3-dihydrobenzo[b][1,4]dioxin-6-yl)-1-hydroxy-3-(pyrrolidin-1-yl)propan-2-yl)pyrrolidine-3-carboxamide]	NA (not active—a negative value was generated for % inhibition)
O=C(N[C@H](CN1CCCC1)[C@H](O)c1ccc2c(c1)OCCO2)C1CCN(CC2(O)CCOCC2)C1 (stereo partly drawn) [Compound 5D, N-((1R,2R)-1-(2,3-dihydrobenzo[b][1,4]dioxin-6-yl)-1-hydroxy-3-(pyrrolidin-1-yl)propan-2-yl)-1-((4-hydroxytetrahydro-2H-pyran-4-yl)methyl)pyrrolidine-3-carboxamide]	F (1-49% (or less than 50%))
